We go through one compound from paper PMC2700083, “A covalent peptide inhibitor of RGS4 identified in a focused one-bead, one compound library screen” (BMC Pharmacology, 2009).

Assay [1] has as its target T1, RGS4 A132C, -7C (Rattus norvegicus, UniProt P49799, C148A/C183A/C197A/C204A/C71A/C95A).
T1 construct: made in house
Briefly: FCPIA, RGS4 A132C in the -7C. The assay is classed as binding. The note with it: read-out: 5nd logIC50 (converted). On the procedure: (§1) Figure 5 Dose curves of 5nd on various RGS4 cysteine mutants. Various concentrations of 5nd were tested for disruption of the RGS4-Gαo interaction for C95A (5 nM), or […], C71A (5nM) or C148A (5nM) (B), A95C in the -7C (5nM), or A132C in the -7C (5nM) (C), A71C in the -7C (5nM), or A148C in the -7C (5nM) (D) or the mutant with no cysteines in the domain (20 nM) or the C-terminus (20 nM) (E) in the FCPIA (mean ± S.E.M., n ≥ 3).
(§2) The previous experiments tested which cysteines are necessary for inhibition by 5nd. In an alternative approach, we added cysteines back to the -7C mutant to determine which might be sufficient for 5nd activity. […] Furthermore, Cys132 is involved in the actions but this is clearly not sufficient to explain them. Thus it is concluded that 5nd is at least partially non-selective in its cysteine modification.
(§3) Proteins were expressed, purified and labeled as described previously. The mutagenesis was done using the "QuickChange Multi Site-Directed Mutagenesis Kit" from Stratagene according to the manufacturer's protocol. The construct of RGS4 used in these studies is a maltose binding protein (MBP-) fusion protein of the RGS4 sequence from which the amphipathic N-terminal helix has been removed (i.e. MBP-RGS4Δ51N). For simplicity in the text, this will be referred to as RGS4. […]

Assay [2] concerns the target T2, RGS4 C148A (Rattus norvegicus, UniProt P49799, C148A).
T2 construct: made in house
Put plainly: FCPIA, RGS4 cysteine mutant C148A. The assay is classed as binding. Conditions: read-out: 5nd logIC50 (converted). On the procedure: as §1
(§4) Proteins were expressed, purified and labeled as described previously. The mutagenesis was done using the "QuickChange Multi Site-Directed Mutagenesis Kit" from Stratagene according to the manufacturer's protocol. The construct of RGS4 used in these studies is a maltose binding protein (MBP-) fusion protein of the RGS4 sequence from which the amphipathic N-terminal helix has been removed (i.e. MBP-RGS4Δ51N). For simplicity in the text, this will be referred to as RGS4. All other RGS proteins were human sequences and were used as Mpb fusions: RGS7 RGS domain (aa: 305–453), RGS8 full length, RGS16 full length, and RGS19ΔC11 (amino acids 1–209). To cleave RGS4Δ51N from the MBP-His6 construct for MS analysis, MBP-His6-RGS4Δ51N was treated with 15% MBP-His6-TEV protease S219V [11] for 22 hours at 4°C and purified over a Ni-NTA column.
(§5) FCPIA was performed as previously published.

Assay [3] deals with T3, RGS4 C71A (Rattus norvegicus, UniProt P49799, C71A).
T3 construct: made in house
T3 sequence (P49799 52-205 C71A limits assumed): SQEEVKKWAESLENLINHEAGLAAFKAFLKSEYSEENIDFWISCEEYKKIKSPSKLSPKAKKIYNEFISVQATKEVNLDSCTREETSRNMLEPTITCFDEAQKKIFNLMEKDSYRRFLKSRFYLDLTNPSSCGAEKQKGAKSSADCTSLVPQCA
Put plainly: FCPIA, RGS4 cysteine mutant C71A. The class given is binding. Conditions: read-out: 5nd logIC50 (converted). On the procedure:
as §1, §4, §5

For assay [4], the target named is T4, RGS4 A71C, -7C (Rattus norvegicus, UniProt P49799, C132A/C148A/C183A/C197A/C204A/C95A).
T4 construct: made in house
Briefly: FCPIA, RGS4 A71C in the -7C. The assay is classed as binding. The note with it: read-out: 5nd logIC50 (converted). As to the method: as §1, §2, §3

The target in assay [5] is T5, RGS4 C132A (Rattus norvegicus, UniProt P49799, C132A).
T5 construct: made in house
T5 sequence (P49799 52-205 C132A limits assumed): T3 sequence (P49799 52-205 C71A limits assumed) with A20C, C81A
Put plainly: FCPIA, RGS4 cysteine mutant C132A. The assay is classed as binding. Conditions: read-out: 5nd logIC50 (converted). On the procedure: as §1, §4, §5

The target of assay [6] is T6, RGS19 (Homo sapiens, UniProt P49795).
T6 construct: RGS19ΔC11 (amino acids 1–209); made in house
T6 sequence (P49795 1-209): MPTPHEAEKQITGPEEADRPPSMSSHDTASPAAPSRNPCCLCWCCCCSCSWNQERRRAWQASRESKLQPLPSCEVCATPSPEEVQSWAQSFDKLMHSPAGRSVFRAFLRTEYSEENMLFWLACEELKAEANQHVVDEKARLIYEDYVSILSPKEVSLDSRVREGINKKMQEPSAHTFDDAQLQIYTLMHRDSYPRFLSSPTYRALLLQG
Briefly: FCPIA, Gαo binding to RGS19. Conditions: Figure 2. As to the method:
(§6) We recently described a bead-based screen in which 2.5 × 10^6 different peptide sequences were prepared as a OBOC library. Fluorescently labeled RGS4 was used to probe the library for peptides that bind RGS4 [5]. […] Since the majority of those hit peptides could bind tightly to the RGS without disrupting GAP activity, they were also tested in the flow cytometry protein interaction assay (FCPIA) (Figure 1), which measures the interaction between RGS4 and Gαo. In this method we used a Luminex flow cytometer to detect the binding of Alexa Fluor 532-labeled Gαo to biotinylated RGS4 on avidin beads in the presence of AMF (AlCl3, MgCl2, NaF and GDP) to put the Gα subunit into a transition state-like conformation. Peptides were tested at 50 μM except where limited by solubility (Table 1).
5nd inhibited Gαo binding to a number of different RGS proteins (Figure 2). […] RGS19 and RGS7 are in the RZ and R7 families, respectively and show less inhibition by 5nd. Linear as well as bridged versions of peptide 5 were tested in the FCPIA since cyclization yields would most likely have been less then 100% in the synthesis of the library leaving some linear peptides present on each bead. […] This may be due to lack of structural rigidity necessary for the correct interaction of the peptide with the RGS protein or a role for chemical reactivity of the disulfide.
Figure 2 Characterization of hit 5. […]

In assay [7] the target is T7, RGS4 (Rattus norvegicus, UniProt P49799).
T7 construct: made in house
T7 sequence (P49799 52-205 limits assumed): T3 sequence (P49799 52-205 C71A limits assumed) with A20C
Briefly: FCPIA (flow cytometry protein interaction assay), RGS4-Gαo interaction, wild type RGS4 (MBP-RGS4Δ51N). The class given is binding. Conditions: peptide 50 μM; 25 nM Gαo-Alexa Fluor-532, 5 nM RGS4-biotin. As to the method:
as §6
Figure 1 Hit peptides in the FCPIA. Hit peptides from Roof, et al. 2008 were tested at 50 μM unless otherwise indicated for ability to disrupt the RGS4-Gαo interaction as described using 25 nM Gα o-Alexa Fluor-532 and 5 nM wild type RGS4-biotin (mean ± S.E.M., n ≥ 3) *p < 0.05, **p < 0.01, ***p < 0.001 compared to no peptide.
as §4, §5
A general note: Flow cytometry measures light scatter and fluorescence of single cells or particles in a stream.

Changes are numbered by the printed parent chain. Values joined by “and” are separate entries in the source; they are usually repeats but may differ in a detail not shown here. Identical values can stand only once. Like-named read-outs stand apart in the source and are kept apart here. Marks after values point to notes of the source that are not given here. Where a SMILES comes first, the peptide text is derived from it. Bridges are numbered along the chain shown (N, C = ends).

T4 sequence (P49799 52-205 C95A/C132A/C148A/C183A/C197A/C204A): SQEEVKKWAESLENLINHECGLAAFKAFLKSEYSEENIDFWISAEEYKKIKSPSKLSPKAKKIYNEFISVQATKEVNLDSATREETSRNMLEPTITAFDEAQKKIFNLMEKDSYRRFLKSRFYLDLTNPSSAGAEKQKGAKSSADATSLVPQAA
T2 sequence (P49799 52-205 C148A limits assumed): as the sequence (P49799 52-205 C95A/C132A/C148A/C183A/C197A/C204A) above, with A44C, A81C, A132C, A146C, A153C counted along it
T1 sequence (P49799 52-205 C71A/C95A/C148A/C183A/C197A/C204A): as the sequence (P49799 52-205 C95A/C132A/C148A/C183A/C197A/C204A) above, with C20A, A81C counted along it

`CC(C)C[C@@H]1NC(=O)CNC(=O)[C@H](CCCCN)NC(=O)[C@@H](NC(=O)[C@H](Cc2c[nH]c3ccccc23)NC(=O)[C@@H](N)Cc2ccc(O)cc2)CSSC[C@@H](C(=O)N[C@@H](CCCCN)C(N)=O)NC1=O` [Peptide 5nd, Tyr-Trp-c [Cys-Lys-Gly-Leu-Cys]-Lys-NH2, S-S] (H-YWCKGLCK-NH2; disulfide 3-7): the IC50 in assay [1] is 389 µM; in assay [2], 53.7 µM; in assay [3], 45.7 µM; in assay [4] it was 631 µM; in assay [5], 138 µM; in assay [6] (read-out: logIC50, RGS19 (converted)), roughly 145 µM. Further, the IC50 in assay [6] (dose response, read-out: IC50, Gαo binding to RGS19) was 145 µM and ~145 µM. In addition, the “% Inhibition of RGS4-Gαo” value in assay [7] was 80 ± 5*** %.
